This is an account of results in patent US20220056043A1, “NITROGEN-CONTAINING FUSED CYCLIC COMPOUND, PREPARATION METHOD THEREFOR AND USE THEREOF” (SICHUAN KELUN-BIOTECH BIOPHARMACEUTICAL CO., LTD., priority 2019, published 2022).

For one test, the target named is T1, hNLRP3 inflammasome (Homo sapiens, UniProt Q96P20).
T1 construct: endogenous in cells; host or cells: THP-1 cells, PMA-differentiated
The test is described as follows: Agonistic effect on the expression of IL-1β in THP-1 cells after PMA-induced differentiation (HTRF). The conditions noted are these: IL-1β level, PMA-differentiated THP-1 cells, 6 hours. Type of test: cell-based. An excerpt: Experimental Example 1: Agonistic Effect of the Compound of the Invention on the Expression of IL-1β in THP-1 Cells after PMA-Induced Differentiation
In this test, a HTRF (homogeneous time-resolved fluorescence) detection method was used to test the effect of the compound of the invention on the level of downstream cytokine IL-1β of NLRP3 to evaluate the agonistic effect of the compound on hNLRP3 inflammasome or hNLRP3 inflammasome pathway at a cellular level.
Reagent: RPMI 1640 (Hyclone); heat-inactivated FBS (fetal bovine serum) (Gibco); PMA (phorbol myristal acetate) (Beyotime)
Kit: IL-1β assay kit (CISIO)
1) THP-1 cells in a logarithmic growth phase were seeded in a T75 culture flask at a density of 5×10^5 cells/well, and cultured in a cell incubator at 37° C., 5% CO2 for 24 hours, and then 1 μM PMA was used to induce THP-1 suspension cells to become adherent macrophages. The medium was RPMI 1640 containing 10% heat-inactivated FBS and 0.05 mM β-mercaptoethanol.
2) The cells were induced and cultured for 24 hours. Then the adherent cells were trypsinized and centrifuged at 1000 rpm for 5 min. The supernatant was removed, and the cells were resuspended to a density of 2×10^6 cells/mL in RPMI 1640 medium containing 2% heat-inactivated FBS. 50 μL/well of cell resuspension was taken and spread on a 96-well plate such that the number of cells in each well was 1×10^5.
3) An appropriate amount of 10 mM DMSO solution of the compound to be tested was taken and diluted to a concentration of 2× test concentration with RPMI 1640 medium containing 2% heat-inactivated FBS. 50 μL/well of the dilution was added to the cells in the 96-well plate, and mixed well. The plate was placed in a cell incubator at 37° C., 5% CO2 for 6 hours. The supernatant was collected, and the level of IL-1β was measured in accordance with the instructions of the IL-1β detection kit.
4) EC50 was fitted by the GraphPad software log(agonist) vs. response—Variable slope four-parameter method.

For the next test, the target named is T2, hTLR7 (Homo sapiens, UniProt Q9NYK1).
T2 construct: host or cells: HEK-hTLR7-NF-κB-Luciferase cells
T2 sequence (Q9NYK1 27-1049): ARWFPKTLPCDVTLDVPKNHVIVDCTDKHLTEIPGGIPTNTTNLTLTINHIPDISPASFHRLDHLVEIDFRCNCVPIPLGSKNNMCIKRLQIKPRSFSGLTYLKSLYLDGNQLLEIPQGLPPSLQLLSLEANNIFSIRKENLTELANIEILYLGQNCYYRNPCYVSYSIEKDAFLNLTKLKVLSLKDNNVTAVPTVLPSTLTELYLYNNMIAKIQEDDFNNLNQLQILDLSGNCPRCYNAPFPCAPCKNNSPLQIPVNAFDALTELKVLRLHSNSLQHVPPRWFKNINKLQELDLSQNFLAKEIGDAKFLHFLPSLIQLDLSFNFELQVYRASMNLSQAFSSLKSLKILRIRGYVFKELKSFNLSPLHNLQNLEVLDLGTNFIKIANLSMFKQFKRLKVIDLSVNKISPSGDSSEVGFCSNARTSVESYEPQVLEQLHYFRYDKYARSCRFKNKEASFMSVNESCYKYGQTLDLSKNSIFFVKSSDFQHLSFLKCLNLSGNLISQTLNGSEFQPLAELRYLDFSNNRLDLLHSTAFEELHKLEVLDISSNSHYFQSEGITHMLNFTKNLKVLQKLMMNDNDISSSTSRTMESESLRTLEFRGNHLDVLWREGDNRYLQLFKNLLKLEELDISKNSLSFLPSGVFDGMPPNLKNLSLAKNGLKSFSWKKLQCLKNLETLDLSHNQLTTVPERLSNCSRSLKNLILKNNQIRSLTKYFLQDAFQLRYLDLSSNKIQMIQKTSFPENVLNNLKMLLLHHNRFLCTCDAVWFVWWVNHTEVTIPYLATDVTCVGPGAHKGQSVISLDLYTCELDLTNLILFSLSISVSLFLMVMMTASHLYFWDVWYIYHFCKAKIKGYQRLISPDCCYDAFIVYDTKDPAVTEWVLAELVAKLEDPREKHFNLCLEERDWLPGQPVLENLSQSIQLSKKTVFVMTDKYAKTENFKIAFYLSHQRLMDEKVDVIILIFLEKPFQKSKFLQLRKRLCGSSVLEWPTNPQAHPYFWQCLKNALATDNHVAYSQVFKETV
The test is described as follows: Agonistic effect on hTLR7, HEK-hTLR7-NF-κB-Luciferase reporter cells. Particulars: 16 hours. Format: cell-based. An excerpt:
Experimental Example 3: Agonistic Effect of the Compound of the Invention on hTLR7
In this test, the luciferase in HEK-hTLR7-NF-κB-reporter cells was detected to test the activating effect of the compound of the invention on TLR7 signaling pathway, so as to evaluate the specificity of the agonistic effect of the compound on NLRP3 pathway.
Reagents: DMEM (High glucose); FBS (fetal bovine serum) (Gibco); Bright-Glo™ Luciferase detection kit (Promega)
Cells: HEK-hTLR7-NF-κB-Luciferase gene cells (human TLR7 NF-κB-luciferase reporter gene cells) (Nanjing Cobioer)
1) The HEK-hTLR7-NF-κB-Luciferase cells in a logarithmic growth phase were trypsinized and resuspended in the medium to a concentration of 2×10^6 cells/mL. 50 μL/well of the cell resuspension was added to a 96-well plate such that the number of cells in each well was […]. An appropriate amount of 10 mM DMSO solution of the compound to be tested was taken and diluted to a concentration of 2× test concentration with the medium. 50 μL/well was added to the cells in the 96-well plate, and the 96-well plate was incubated in an incubator at 37° C. and 5% CO2 for 16 hours. The medium was DMEM (High glucose) containing 10% FBS.
2) After the cell incubation, 100 μL/well of Bright-Glo™ Luciferase detection reagent was added, and the mixture was incubated at room temperature for 5 minutes. Relative luciferase activity unit (RLU) was read using a microplate reader.
3) The EC50 of effect of the tested compound to stimulate hTLR7 was fitted by the GraphPad software log(agonist) vs. response—Variable slope four-parameter method.
In general terms: Reporter assays use an easily measured gene product as a stand-in for the process of interest.

For orientation: EC50 means the concentration that produces a half-maximal response. Higher therefore signals lower potency in that assay.

T1 sequence (Q96P20 whole entry): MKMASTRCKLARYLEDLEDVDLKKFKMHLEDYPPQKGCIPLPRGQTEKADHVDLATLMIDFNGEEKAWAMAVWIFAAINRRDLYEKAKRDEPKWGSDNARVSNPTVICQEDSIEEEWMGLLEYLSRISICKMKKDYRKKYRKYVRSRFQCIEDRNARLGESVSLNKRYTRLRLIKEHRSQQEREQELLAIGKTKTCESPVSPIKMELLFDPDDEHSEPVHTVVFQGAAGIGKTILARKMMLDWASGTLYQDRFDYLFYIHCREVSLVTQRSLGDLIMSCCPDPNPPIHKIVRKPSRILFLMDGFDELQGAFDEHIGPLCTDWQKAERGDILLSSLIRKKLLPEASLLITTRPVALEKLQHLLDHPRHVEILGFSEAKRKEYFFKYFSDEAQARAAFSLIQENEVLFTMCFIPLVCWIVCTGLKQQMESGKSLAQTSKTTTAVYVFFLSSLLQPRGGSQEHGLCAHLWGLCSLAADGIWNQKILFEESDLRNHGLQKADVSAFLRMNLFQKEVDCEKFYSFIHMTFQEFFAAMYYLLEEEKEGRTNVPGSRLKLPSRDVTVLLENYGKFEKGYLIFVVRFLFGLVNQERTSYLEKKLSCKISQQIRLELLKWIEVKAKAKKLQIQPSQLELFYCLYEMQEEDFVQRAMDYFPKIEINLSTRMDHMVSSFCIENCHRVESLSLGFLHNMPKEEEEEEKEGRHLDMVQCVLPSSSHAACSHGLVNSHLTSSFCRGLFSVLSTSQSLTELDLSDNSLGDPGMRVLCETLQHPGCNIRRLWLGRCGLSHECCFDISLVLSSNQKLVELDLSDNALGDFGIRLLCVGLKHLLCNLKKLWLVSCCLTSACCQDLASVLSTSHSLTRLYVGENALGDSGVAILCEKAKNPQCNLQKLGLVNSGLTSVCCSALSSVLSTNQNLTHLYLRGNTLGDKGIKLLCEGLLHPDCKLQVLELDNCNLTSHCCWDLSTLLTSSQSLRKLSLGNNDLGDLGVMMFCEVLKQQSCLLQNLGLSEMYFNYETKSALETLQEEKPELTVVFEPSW

Regarding `Cn1cnc(CNc2cc(N)nc3cc(-c4ccn[nH]4)sc23)c1` [Compound 63, N^7-(1-methyl-1H-imidazol-4-yl)methyl-2-(1H-pyrazol-5-yl)thieno[3,2-b]pyridine-5,7-diamine], the EC50 was 0.07 µM on hNLRP3 inflammasome and more than 100000 nM at hTLR7.

For `Nc1cc(NCCNC(=O)C2CC2)c2sc(-c3ccn[nH]3)cc2n1` [Compound 64], the EC50 was 0.05 µM on hNLRP3 inflammasome and more than 100000 nM at hTLR7.

`CC(=O)N(C)CCNc1cc(N)nc2cc(-c3ccn[nH]3)sc12` [Compound 73, N-(2-((5-amino-2-(1H-pyrazol-5-yl)thieno[3,2-b]pyridin-7-yl)amino)ethyl)-N-methylethanamide]: the results for the EC50 on hNLRP3 inflammasome and on hTLR7 were 0.18 µM and more than 100000 nM, respectively.

Turning to `CC(=O)N(C)CCCNc1cc(N)nc2cc(-c3ccn[nH]3)sc12` [Compound 74, N-(3-((5-amino-2-(1H-pyrazol-5-yl)thieno[3,2-b]pyridin-7-yl)amino)propyl)-N-methylacetamide], the EC50 was 0.26 µM at hNLRP3 inflammasome and more than 100000 nM on hTLR7.

For `CN(CCNc1cc(N)nc2cc(-c3ccn[nH]3)sc12)C(=O)C1CC1` [Compound 75, N-(2-((5-amino-2-(1H-pyrazol-5-yl)thieno[3,2-b]pyridin-7-yl)amino)ethyl)-N-methylcyclopropionamide], the figures for the EC50 on hNLRP3 inflammasome and at hTLR7 were 0.11 µM and more than 100000 nM, respectively.

For `CN(CCCNc1cc(N)nc2cc(-c3ccn[nH]3)sc12)C(=O)C1CC1` [Compound 76, N-(3-((5-amino-2-(1H-pyrazol-5-yl)thieno[3,2-b]pyridin-7-yl)amino)propyl)-N-methylcyclopropane formamide], the EC50 was 0.27 µM on hNLRP3 inflammasome and more than 100000 nM on hTLR7.

`CCC(=O)N(C)CCNc1cc(N)nc2cc(-c3ccn[nH]3)sc12` [Compound 88, N-(2-((5-amino-2-(1H-pyrazol-5-yl)thieno[3,2-b]pyridin-7-yl)amino)ethyl)-N-methylpropionamide]: the EC50 was 0.04 µM at hNLRP3 inflammasome and more than 100000 nM on hTLR7.

With `CN1CCC(Nc2cc(N)nc3cc(-c4ccn[nH]4)sc23)CC1` [Compound 89, N^7-(1-methylpiperidin-4-yl)-2-(1H-pyrazol-5-yl)thieno[3,2-b]pyridine-5,7-diamine], the EC50 at hNLRP3 inflammasome was 0.16 µM; at hTLR7, more than 100000 nM.

As to `Nc1cc(NCCCO)c2sc(-c3ccncc3)cc2n1` [Compound 90, 3-((5-amino-2-(pyridin-4-yl)thieno[3,2-b]pyridin-7-yl)amino)-1-propanol], the figures for the EC50 at hNLRP3 inflammasome and at hTLR7 were 6.03 µM and more than 100000 nM, respectively.

For the molecule `Cc1cccc(-c2cc3nc(N)cc(NCCCO)c3s2)n1` [Compound 91, 3-((5-amino-2-(6-methylpyridin-2-yl)thieno[3,2-b]pyridin-7-yl)amino)-1-propanol], the EC50 on hNLRP3 inflammasome was 0.11 µM; on hTLR7 it was more than 100000 nM.

For `CC(=O)N1CCC(Nc2cc(N)nc3cc(-c4ccn[nH]4)sc23)CC1` [Compound 92, 1-(4-((5-amino-2-(1H-pyrazol-5-yl)thieno[3,2-b]pyridin-7-yl)amino)piperidin-1-yl)ethanone], the EC50 is 1.12 µM at hNLRP3 inflammasome and more than 100000 nM at hTLR7.

In the case of `Nc1cc(NCCCO)c2sc(-c3ccccc3)cc2n1` [Compound 93, 3-((5-amino-2-phenylthieno[3,2-b]pyridin-7-yl)amino)-1-propanol], the EC50 at hNLRP3 inflammasome was 0.18 µM; on hTLR7 it was more than 100000 nM.

Take `CC[C@H](CO)Nc1cc(N)nc2cc(-c3ccn[nH]3)sc12` [Compound 95, (R)-2-((5-amino-2-(1H-pyrazol-5-yl)thieno[3,2-b]pyridin-7-yl)amino)butanol]: the EC50 at hNLRP3 inflammasome is 0.09 µM; at hTLR7, more than 100000 nM.

Regarding `Nc1cc(N[C@@H]2CCC[C@@H]2O)c2sc(-c3ccn[nH]3)cc2n1` [Compound 96, (1S,2R)-2-((5-amino-2-(1H-pyrazol-5-yl)thieno[3,2-b]pyridin-7-yl)amino)cyclopentanol], the EC50 on hNLRP3 inflammasome is 0.07 µM; on hTLR7 it was more than 100000 nM.

As for `Nc1cc(NCC(F)(F)c2ccccn2)c2sc(-c3ccn[nH]3)cc2n1` [Compound 97, N^7-(2,2-difluoro-2-(pyridin-2-yl)ethyl)-2-(1H-pyrazol-5-yl)thieno[3,2-b]pyridine-5,7-diamine], the EC50 at hNLRP3 inflammasome is 0.03 µM; at hTLR7 it was more than 100000 nM.

Turning to `CC1(O)CCN(CCNc2cc(N)nc3cc(-c4ccn[nH]4)sc23)CC1` [Compound 98, 1-(2-((5-amino-2-(1H-pyrazol-5-yl)thieno[3,2-b]pyridin-7-yl)amino)ethyl)-4-methylpiperidine-4-ol], the EC50 at hNLRP3 inflammasome was 0.35 µM; at hTLR7 it was more than 100000 nM.

As for `CC1(O)CCN(CCCNc2cc(N)nc3cc(-c4ccn[nH]4)sc23)CC1` [Compound 99, 1-(3-((5-amino-2-(1H-pyrazol-5-yl)thieno[3,2-b]pyridin-7-yl)amino)propyl)-4-methylpiperidine-4-ol], the EC50 on hNLRP3 inflammasome was 0.54 µM; at hTLR7, more than 100000 nM.

As to `COCCNc1cc(N)nc2cc(-c3ccn[nH]3)sc12` [Compound 100, N^7-(2-methoxyethyl)-2-(1H-pyrazol-5-yl)thieno[3,2-b]pyridine-5,7-diamine], the values for the EC50 on hNLRP3 inflammasome and at hTLR7 were 0.03 µM and more than 100000 nM, respectively.

Regarding `CO[C@H](C)CNc1cc(N)nc2cc(-c3ccn[nH]3)sc12` [Compound 101, (R)—N^7-(2-methoxypropyl)-2-(1H-pyrazol-5-yl)thieno[3,2-b]pyridine-5,7-diamine], the figures for the EC50 on hNLRP3 inflammasome and on hTLR7 were 0.03 µM and more than 100000 nM, respectively.

Regarding `Nc1cc(NCC2CC2)c2sc(-c3ccn[nH]3)cc2n1` [Compound 102, N^7-(cyclopropylmethyl)-2-(1H-pyrazol-5-yl)thieno[3,2-b]pyridine-5,7-diamine], the EC50 was 0.01 µM at hNLRP3 inflammasome and more than 100000 nM at hTLR7.

On to `CN1CCC[C@@H](Nc2cc(N)nc3cc(-c4ccn[nH]4)sc23)C1` [Compound 104, (R)—N^7-(1-methylpiperidin-3-yl)-2-(1H-pyrazol-5-yl)thieno[3,2-b]pyridine-5,7-diamine], for which the EC50 was 0.17 µM on hNLRP3 inflammasome and more than 100000 nM on hTLR7.
